From PubChem BioAssay AID248 (DTP/NCI, 2004) come the findings set out here.

Where “and” joins values, the source holds several entries; their conditions need not be identical. Identical values can stand only once. Inconclusive results and toxic doses are left out.

This experiment relates to L1210 leukemia ip in BDF1 mice, survival T/C. Nature of the experiment: NCI In Vivo Anticancer Drug Screen. Data for tumor model L1210 Leukemia (intraperitoneal) in B6D2F1 (BDF1) mice. The note with it: endpoint: mean survival time, higher = longer survival. The method in brief: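 Tumor was transplanted into mice, which were then dosed with test compound or vehicle alone. Survival was recorded for each group, and the treated figure was expressed relative to the control figure.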

Where [1] appears, read: dose: 25.0 mg/kg/injection, schedule: Q01DX009 (ip), vehicle: saline.
Setting [2] is: dose: 50.0 mg/kg/injection, schedule: Q01DX009 (ip), vehicle: saline.
[3] abbreviates: dose: 50.0 mg/kg/injection, schedule: Q04DX003 (ip), vehicle: saline.
Where [4] appears, read: dose: 100.0 mg/kg/injection, schedule: Q04DX003 (ip), vehicle: saline.
[5] abbreviates: dose: 100.0 mg/kg/injection, schedule: Q01DX009 (ip), vehicle: Klucel (hydroxypropylcellulose) (HPC).
Where [6] appears, read: dose: 100.0 mg/kg/injection, schedule: Q04DX003 (ip), vehicle: Klucel (hydroxypropylcellulose) (HPC).
[7] abbreviates: dose: 200.0 mg/kg/injection, schedule: Q01DX009 (ip), vehicle: Klucel (hydroxypropylcellulose) (HPC).
Setting [8] is: dose: 200.0 mg/kg/injection, schedule: Q04DX003 (ip), vehicle: Klucel (hydroxypropylcellulose) (HPC).
The mark [9] stands for this setting: dose: 400.0 mg/kg/injection, schedule: Q01DX009 (ip), vehicle: Klucel (hydroxypropylcellulose) (HPC).
The mark [10] stands for this setting: dose: 400.0 mg/kg/injection, schedule: Q04DX003 (ip), vehicle: Klucel (hydroxypropylcellulose) (HPC).

As for `N=C(N)SC12CC3CC(CC(C3)C1)C2`, the T/C was 94 % of control (dose: 10.0 mg/kg/injection, schedule: Q04DX002 (ip), vehicle: Klucel (hydroxypropylcellulose) (HPC)); 87 % of control (dose: 20.0 mg/kg/injection, schedule: Q04DX002 (ip), vehicle: Klucel (hydroxypropylcellulose) (HPC)); 94 % of control (dose: 40.0 mg/kg/injection, schedule: Q04DX002 (ip), vehicle: Klucel (hydroxypropylcellulose) (HPC)).
With `CCCCCCCCCC(=O)N1CCOCC1`, the T/C runs as follows: under setting [1], 98 % of control; (dose: 25.0 mg/kg/injection, schedule: Q04DX003 (ip), vehicle: saline) 97 % of control; under setting [2], 113 % of control; under setting [3], 101 % of control; under setting [4], 94 % of control and 89 % of control.
Take `CC(=O)N(C(C)=O)C1=C(c2ccccc2)C(=O)c2ccccc21`: the T/C is, setting by setting: under setting [5], 98 % of control; under setting [6], 96 % of control; under setting [7], 97 % of control; under setting [8], 105 % of control; under setting [9], 94 % of control; under setting [10], 107 % of control.
On to `O=C(Nc1ccc(F)cc1)Nc1ccc(I)cc1`, for which the T/C is 100 % of control and 92 % of control under setting [5]; 100 % of control under setting [7]; 96 % of control and 90 % of control under setting [9].
`O=C1C=C(C(=O)O)C(c2ccccc2)CC1` (stereo unspecified): the T/C is 88 % of control under setting [5]; 100 % of control under setting [6]; 95 % of control under setting [7]; 95 % of control under setting [8]; 98 % of control under setting [9]; 98 % of control under setting [10].
Take `Clc1cc[c]([Sn]([O][Sn]([c]2ccc(Cl)cc2)([c]2ccc(Cl)cc2)[c]2ccc(Cl)cc2)([c]2ccc(Cl)cc2)[c]2ccc(Cl)cc2)cc1`: the T/C is 107 % of control (dose: 25.0 mg/kg/injection, schedule: Q04DX002 (ip), vehicle: Klucel (hydroxypropylcellulose) (HPC)) and 91 % of control (dose: 50.0 mg/kg/injection, schedule: Q04DX002 (ip), vehicle: Klucel (hydroxypropylcellulose) (HPC)).
For the compound `Cc1cc(Cl)c([N+](=O)[O-])c(P(=O)(O)O)c1`, the T/C runs as follows: (dose: 75.0 mg/kg/injection, schedule: Q01DX001 (ip), vehicle: saline) 90 % of control; (dose: 150.0 mg/kg/injection, schedule: Q01DX001 (ip), vehicle: saline) 90 % of control; (dose: 300.0 mg/kg/injection, schedule: Q01DX001 (ip), vehicle: saline) 96 % of control.
Consider `Oc1c(Cl)cc(C(c2cc(Cl)c(O)c(Cl)c2)C(c2cc(Cl)c(O)c(Cl)c2)c2cc(Cl)c(O)c(Cl)c2)cc1Cl`, for which the T/C under setting [4] was 101 % of control; the T/C (dose: 200.0 mg/kg/injection, schedule: Q04DX003 (ip), vehicle: saline) is 96 % of control; the T/C (dose: 400.0 mg/kg/injection, schedule: Q04DX003 (ip), vehicle: saline) is 103 % of control.
`CCOC(=O)c1ccc(NC(=O)CC(C)=O)cc1`: the T/C by setting is: (dose: 100.0 mg/kg/injection, schedule: Q04DX003 (ip), vehicle: saline with Tween-80) 103 % of control; (dose: 200.0 mg/kg/injection, schedule: Q04DX003 (ip), vehicle: saline with Tween-80) 101 % of control; (dose: 400.0 mg/kg/injection, schedule: Q04DX003 (ip), vehicle: saline with Tween-80) 97 % of control.
Regarding `O=C(COc1ccccc1)Nc1ccccc1C(=O)O`, the T/C runs as follows: (dose: 100.0 mg/kg/injection, schedule: Q01DX001 (ip), vehicle: gum acacia) 97 % of control; (dose: 200.0 mg/kg/injection, schedule: Q01DX001 (ip), vehicle: gum acacia) 90 % of control; (dose: 400.0 mg/kg/injection, schedule: Q01DX001 (ip), vehicle: gum acacia) 90 % of control.
`O=NN(CCCl)C(=O)Nc1ccc(CCCl)cc1`: the T/C is 161 % of control (dose: 10.0 mg/kg/injection, schedule: Q01DX001 (ip), vehicle: carboxymethylcellulose (CMC)); 152 % of control (dose: 20.0 mg/kg/injection, schedule: Q01DX001 (ip), vehicle: carboxymethylcellulose (CMC)); 246 % of control (dose: 33.0 mg/kg/injection, schedule: Q01DX001 (ip), vehicle: carboxymethylcellulose (CMC)); 107 % of control (dose: 33.0 mg/kg/injection, schedule: Q01DX009 (ip), vehicle: carboxymethylcellulose (CMC)); 216 % of control (dose: 50.0 mg/kg/injection, schedule: Q01DX001 (ip), vehicle: carboxymethylcellulose (CMC)); 87 % of control (dose: 50.0 mg/kg/injection, schedule: Q01DX009 (ip), vehicle: carboxymethylcellulose (CMC)).
Regarding `O=C(O)c1ccccc1C(=O)OC1C=CC2CCC1C2` (stereo unspecified), the T/C reads like this: (dose: 100.0 mg/kg/injection, schedule: Q01DX001 (ip), vehicle: carboxymethylcellulose (CMC)) 112 % of control; (dose: 200.0 mg/kg/injection, schedule: Q01DX001 (ip), vehicle: carboxymethylcellulose (CMC)) 90 % of control; (dose: 400.0 mg/kg/injection, schedule: Q01DX001 (ip), vehicle: carboxymethylcellulose (CMC)) 96 % of control.
For `COC(=O)NS(=O)(=O)OC`, the T/C reads like this: (dose: 100.0 mg/kg/injection, schedule: Q04DX002 (ip), vehicle: saline) 103 % of control; (dose: 200.0 mg/kg/injection, schedule: Q04DX002 (ip), vehicle: saline) 110 % of control.
As to `CC1(C)N=C(N)N=C(N)N1c1ccc(CCc2ccccc2)c(Cl)c1`, the T/C (dose: 3.13 mg/kg/injection, schedule: Q01DX009 (ip), vehicle: Klucel (hydroxypropylcellulose) (HPC)) was 100 % of control; the T/C (dose: 6.25 mg/kg/injection, schedule: Q01DX009 (ip), vehicle: Klucel (hydroxypropylcellulose) (HPC)) was 104 % of control; the T/C (dose: 12.5 mg/kg/injection, schedule: Q01DX009 (ip), vehicle: Klucel (hydroxypropylcellulose) (HPC)) is 104 % of control; the T/C (dose: 12.5 mg/kg/injection, schedule: Q04DX003 (ip), vehicle: Klucel (hydroxypropylcellulose) (HPC)) was 93 % of control; the T/C (dose: 25.0 mg/kg/injection, schedule: Q01DX009 (ip), vehicle: Klucel (hydroxypropylcellulose) (HPC)) is 107 % of control; the T/C (dose: 25.0 mg/kg/injection, schedule: Q04DX003 (ip), vehicle: Klucel (hydroxypropylcellulose) (HPC)) is 93 % of control. Also, under “dose: 50.0 mg/kg/injection, schedule: Q04DX003 (ip), vehicle: Klucel (hydroxypropylcellulose) (HPC)”, the T/C was 94 % of control.
Regarding `c1ccc([P+](c2ccccc2)(c2ccccc2)c2ccc([P+](c3ccccc3)(c3ccccc3)c3ccccc3)c3ccccc23)cc1`, the T/C is, setting by setting: (dose: 0.6 mg/kg/injection, schedule: Q04DX003 (ip), vehicle: Klucel (hydroxypropylcellulose) (HPC)) 92 % of control; (dose: 1.0 mg/kg/injection, schedule: Q04DX003 (ip), vehicle: Klucel (hydroxypropylcellulose) (HPC)) 92 % of control; (dose: 1.5 mg/kg/injection, schedule: Q04DX003 (ip), vehicle: Klucel (hydroxypropylcellulose) (HPC)) 92 % of control; (dose: 2.25 mg/kg/injection, schedule: Q04DX003 (ip), vehicle: Klucel (hydroxypropylcellulose) (HPC)) 92 % of control; (dose: 3.12 mg/kg/injection, schedule: Q04DX003 (ip), vehicle: Klucel (hydroxypropylcellulose) (HPC)) 96 % of control; (dose: 6.25 mg/kg/injection, schedule: Q04DX003 (ip), vehicle: Klucel (hydroxypropylcellulose) (HPC)) 94 % of control.
For the compound `CN(C)C1CCC(Nc2nc(Nc3cc(Cl)cc(Cl)c3)nc3ccccc23)CC1` (stereo unspecified), the T/C (dose: 100.0 mg/kg/injection, schedule: Q01DX001 (ip), vehicle: saline with Tween-80) was 95 % of control.
In the case of `Nc1nc(N)c(-c2ccc(Cl)c(Cl)c2)c(COc2ccc(NC(=O)c3ccc(S(=O)(=O)F)cc3)cc2Cl)n1`, the T/C reads like this: (dose: 50.0 mg/kg/injection, schedule: Q01DX001 (ip), vehicle: Klucel (hydroxypropylcellulose) (HPC)) 97 % of control; (dose: 100.0 mg/kg/injection, schedule: Q01DX001 (ip), vehicle: Klucel (hydroxypropylcellulose) (HPC)) 97 % of control.
As for `CN1CCC2=C(C1)C(c1ccccc1)c1ccccc12` (stereo unspecified), the T/C under setting [1] was 90 % of control; the T/C under setting [2] is 95 % of control; the T/C under setting [3] is 106 % of control; the T/C (dose: 100.0 mg/kg/injection, schedule: Q01DX009 (ip), vehicle: saline) was 102 % of control; the T/C under setting [4] is 106 % of control.
`Cc1ccc(S(=O)(=O)OCCCl)cc1`: the T/C is, setting by setting: (dose: 100.0 mg/kg/injection, schedule: Q04DX002 (ip), vehicle: saline with Tween-80) 98 % of control; (dose: 200.0 mg/kg/injection, schedule: Q04DX002 (ip), vehicle: saline with Tween-80) 109 % of control.
